The structures appear in SMILES notation.

For the test, the target named is human SGLT2 (Homo sapiens (Human), UniProt P31639). The test can be described thus: hSGLT2 inhibitory activity, sodium-dependent 14C-AMG glucose transport assay in CHO cells expressing hSGLT2. It counts as cell-based. As to conditions: 14C-AMG uptake, CHO cells expressing hSGLT2, 37° C. for 2 h. An outline of the steps: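 Stably transfected CHO cells preincubated 10 min at 37 °C in Na⁺-free choline buffer, then 2 h at 37 °C in NaCl uptake buffer (pH 7.4) with 1 mM unlabeled AMG plus 8 uM ¹⁴C-AMG and inhibitor or DMSO. Washed cells counted by liquid scintillation.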
human SGLT2, sequence (P31639 whole entry): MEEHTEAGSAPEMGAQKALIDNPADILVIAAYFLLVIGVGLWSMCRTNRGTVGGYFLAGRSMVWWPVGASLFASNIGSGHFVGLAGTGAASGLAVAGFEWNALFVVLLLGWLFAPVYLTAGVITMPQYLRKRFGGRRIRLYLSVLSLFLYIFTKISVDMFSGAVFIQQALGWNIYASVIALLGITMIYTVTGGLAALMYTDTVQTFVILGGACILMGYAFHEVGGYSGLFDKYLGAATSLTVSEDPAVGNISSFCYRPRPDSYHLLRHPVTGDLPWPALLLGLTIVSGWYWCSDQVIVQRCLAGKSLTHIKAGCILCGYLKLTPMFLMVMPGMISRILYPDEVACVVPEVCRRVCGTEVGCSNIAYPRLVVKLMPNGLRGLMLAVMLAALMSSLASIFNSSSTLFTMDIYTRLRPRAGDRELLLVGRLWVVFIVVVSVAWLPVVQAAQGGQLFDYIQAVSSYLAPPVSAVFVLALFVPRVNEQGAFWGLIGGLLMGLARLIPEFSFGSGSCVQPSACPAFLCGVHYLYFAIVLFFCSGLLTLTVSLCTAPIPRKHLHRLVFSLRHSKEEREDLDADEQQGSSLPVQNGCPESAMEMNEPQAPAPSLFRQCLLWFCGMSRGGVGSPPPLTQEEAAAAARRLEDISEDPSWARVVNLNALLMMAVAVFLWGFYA
As usually defined, the IC50 is the midpoint of a concentration-inhibition curve. `OC[C@H]1O[C@@H](c2ccc(Cl)c(Cc3nncc(-c4ccccc4)n3)c2)[C@H](O)[C@@H](O)[C@@H]1O` [Example 90, (2S,3R,4R,5S,6R)-2-(4-Chloro-3-((5-phenyl-1,2,4-triazin-3-yl)methyl)phenyl)-6-(hydroxymethyl)tetrahydro-2H-pyran-3,4,5-triol] showed an IC50 of 402 nM. On to `COc1cnc(Cc2cc([C@@H]3O[C@H](CO)[C@@H](O)[C@H](O)[C@H]3O)ccc2Cl)nn1` [Example 91, (2S,3R,4R,5S,6R)-2-(4-Chloro-3-((6-methoxy-1,2,4-triazin-3-yl)methyl)phenyl)-6-(hydroxymethyl)tetrahydro-2H-pyran-3,4,5-triol], for which the IC50 turned out to be 24.9 nM. Take `OC[C@H]1O[C@@H](c2cc(Cc3nnc(-c4ccco4)s3)cc3ccccc23)[C@H](O)[C@@H](O)[C@@H]1O` [Example 92, (2S,3R,4R,5S,6R)-2-(3-((5-(Furan-2-yl)-1,3,4-thiadiazol-2-yl)methyl)naphthalene-1-yl)-6-(hydroxymethyl)-tetrahydro-2H-pyran-3,4,5-triol]: the IC50 was determined as 88.9 nM. Regarding `COc1c(Cc2nnc(-c3ccco3)s2)cc([C@@H]2O[C@H](CO)[C@@H](O)[C@H](O)[C@H]2O)c2ccccc12` [Example 93, (2S,3R,4R,5S,6R)-2-(3-((5-(Furan-2-yl)-1,3,4-thiadiazol-2-yl)methyl)-4-methoxynaphthalen-1-yl)-6-(hydroxymethyl)-tetrahydro-2H-pyran-3,4,5-triol], the IC50 was 10.7 nM. `OC[C@H]1O[C@@H](c2cc(Cc3nnc(-c4ccco4)s3)c(O)c3ccccc23)[C@H](O)[C@@H](O)[C@@H]1O` [Example 94, (2S,3R,4R,5S,6R)-2-(3-((5-(Furan-2-yl)-1,3,4-thiadiazol-2-yl)methyl)-4-hydroxynaphthalen-1-yl)-6-(hydroxymethyl)-tetrahydro-2H-pyran-3,4,5-triol] showed an IC50 of 24.8 nM. Regarding `OC[C@H]1O[C@@H](c2cc(Cc3nnc(-c4ccco4)s3)c3ccccc3c2)[C@H](O)[C@@H](O)[C@@H]1O` [Example 95, (2S,3R,4R,5S,6R)-2-(4-((5-(Furan-2-yl)-1,3,4-thiadiazol-2-yl)methyl)naphthalen-2-yl)-6-(hydroxymethyl)-tetrahydro-2H-pyran-3,4,5-triol], the IC50 is 323 nM. As to `OC[C@H]1O[C@@H](c2cc(Cc3nnc(-c4ccco4)s3)c(Cl)cc2Cl)[C@H](O)[C@@H](O)[C@@H]1O` [Example 96, (2S,3R,4R,5S,6R)-2-(2,4-Dichloro-5-((5-(furan-2-yl)-1,3,4-thiadiazol-2-yl)methyl)phenyl)-6-(hydroxymethyl)-tetrahydro-2H-pyran-3,4,5-triol], the IC50 came to 17.6 nM.

On to `COc1cc(Cl)c(Cc2nnc(-c3ccco3)s2)cc1[C@@H]1O[C@H](CO)[C@@H](O)[C@H](O)[C@H]1O` [Example 97, (2S,3R,4R,5S,6R)-2-(4-Chloro-5-((5-(furan-2-yl)-1,3,4-thiadiazol-2-yl)methyl)-2-methoxyphenyl)-6-(hydroxymethyl)-tetrahydro-2H-pyran-3,4,5-triol], for which the IC50 is 5.55 nM.

For the origin of these results see patent US8541380B2, “C-aryl glucoside SGLT2 inhibitors and pharmaceutical compositions comprising same” (Green Cross Corporation, priority 2009, dated 2013).
